Measured values published in patent publication US20100113406A1, “USE OF GLUCOCORTICOIDS FOR TREATMENT OF CONGESTIVE HEART FAILURE” (priority 2007, published 2010).
“Also recorded” adds a separate entry of the source.

Columns and labels:
[1] = Pharmacokinetic study in normal Wistar rats (IPC vs IV infusion, corticosterone levels by HPLC); format: in vivo, Wistar rat; details: local (intrapericardial) administration versus systemic (IV) administration of the same amount of drug; 4 weeks infusion; FIG. 2
Procedure: (§1) Normal Wistar rats were used for this Example. Animals were housed at the animal facilities of the University of Maastricht with a 12-hour light/dark cycle and had free access to standard rat chow and tap-water. Experiments were performed according to institutional guidelines and conformed to the Guide for the Care and Use of Laboratory Animals published by the US National Institutes of Health (NIH Publication No. 85-23, revised 1996).
The rats underwent a surgical procedure to install pericardial and intravenous catheters and minipumps. Construction of the pericardial catheters and the procedure to install the catheter into the pericardial space were conducted as described by Hermans, which has been discussed above.
Briefly, the pericardial catheters consisted of silicone tubing (internal diameter: 0.51 mm; external diameter 0.94 mm, Degania Silicone, Degania Bet, Israel), which, by assembling its endings with a polyolefin shrinking sleeve (Farnell Compounds, Maarssen, the Netherlands), was shaped as a loop (length appr. 2 cm, width appr. 1 cm). Silicone glue was applied in the middle of the loop, to create two separate chambers (one used for fluid injection, the second closed, i.e. connected to a closed ending). The fluid infusion chamber was provided with holes by use of a 25-gauge perforator. […]

[2] = system: collagens I and III and BNP mRNA; assay: Left ventricular gene expression levels of collagens I and III and BNP (real-time PCR) in SHHF rats; format: in vivo; details: SHHF rat left ventricle, 4 weeks treatment; FIG. 13
Procedure: Left ventricular gene expression levels of collagens I and III and BNP were determined as follows. mRNA expression analyses were performed as follows:
Heart samples (i.e. basal side of the hearts) were shock frozen in liquid nitrogen for RNA. Total RNA from the LV was isolated using the Ultraspec II kit (Bioteckx), according to the instructions of the manufacturer. After integrity checking and determining RNA concentrations with the nanodrop procedure, the RNA concentrations were adjusted to 100 ng/μl For first strand cDNA synthesis, 100 ng heat denatured RNA and 200 pmol random hexamer primers (Pharmacia, Uppsala Sweden) were transferred to a Ready-To-Go first strand bead (Pharmacia, Uppsala Sweden) tube and the volume adjusted to 33 μl.
The reaction (1 hour at 37° C.) was stopped by heat inactivating (2 minutes at 94° C.) the transcriptase and samples were cooled to 4° C. For conducting the real-time PCR, […] of the cDNA templates (100× diluted) were added to SYBR green master mix (Eurogentec) and primers (15 μM final concentration each) yielding a total volume of […], following the instructions of the Eurogentec.
PCR-primers (Sigma Genosys) were selected based on published primers/cDNA sequences and had the following sequences (5′→3′): […]
yielding products with fragment lengths of 253, 147 and 86 base pairs for PGK 1 (phosphoglycerate kinase 1), BNP (brain natriuretic peptide) and collagens I and -III respectively.
Samples were denatured and incubated for 40 cycles at 60° C. (120 seconds; annealing and synthesis) and 95° C. (15 seconds), during which fluorescence was continuously monitored (Biorad thermocycler).
Based on the linear part of the curves, initial gene concentrations were derived by comparing signals with standard curves. Validity of the procedure was checked by constructing melting curves for every sample.
Calculated gene expression levels were standardized for the house keeping gene PGK1 and were normalized versus RNA obtained from untreated control animals. Data are therefore expressed as arbitrary units (means±SEM).

[3] = system: spontaneous hypertensive heart failure (SHHF) rats; assay: Left ventricular pressures, contractility, relaxation, arterial pressure and heart rate in SHHF rat model of CHF; format: in vivo
Procedure: as §1, with “Forty to forty-two week old male lean spontaneous hypertensive heart failure (SHHF)” for “Normal Wistar”, “rats (originally obtained from Charles River, Boston, USA)” for “rats”, “used.” for “used for this Example.”
The rats underwent a surgical procedure to install pericardial and intravenous catheters and minipumps according to the procedure of Example 1.
Animals were randomly assigned to treatment groups (n=9 per group). Total treatment time was 4 weeks for all animals. The groups were as follows: • (1) corticosterone high dose IPC (60 micrograms/day) • (2) corticosterone low dose IPC (6 micrograms/day) • (3) corticosterone high dose IV (60 micrograms/day) • (4) corticosterone low dose IV (6 micrograms/day) • (5) vehicle
Where IPC—intrapericardial dosing, and IV=intravenous dosing.
During treatment, Group 5 (vehicle) rats were continuously infused with vehicle (40% polyethylene glycol in water; 60 μl/day) via both catheters. Experimental groups obtained continuous infusions as follows: • Group (1)—a high dose (60 ug/day) of corticosterone hemisuccinate intrapericardially and vehicle intravenously; • Group (2)—a low dose (6 ug/day) of corticosterone hemisuccinate intrapericardially and vehicle intravenously; • Group (3)—a high dose (60 ug/day) of corticosterone hemisuccinate intravenously and vehicle intrapericardially; and • Group (4)—a low dose (6 ug/day) of corticosterone hemisuccinate intravenously and vehicle intrapericardially. • Corticosterone hemisuccinate was purchased from Sigma (St Louis, Mo.)
Left ventricular pressures, contractility and relaxation were evaluated at the end of the study as described in B J Janssen et al., “Effects of anesthetics on systemic hemodynamics in mice.” Am J Physiol Heart Circ Physiol 287:H1618-1624 (2004). For this purpose rats were anaesthetized with pentobarbital (50 mg/kg i.p., Sigma). A high-fidelity catheter tip micromanometer (Mikro-tip 1.4F; SPR-671, Millar Instruments, Houston, Tex., USA) was inserted into the left ventricular cavity through the right carotid artery. Before the tip was inserted into the left ventricle, mean arterial pressures and heart rates were briefly recorded in the carotid artery. Left ventricular pressure was measured and sampled at a rate of 2 kHz under an I.V. ramp infusion of dobutamine up to 5 ng/gBW/min (Sigma) using a microinjection pump (model 200 Series, KD Scientific, Boston, Mass., USA). Maximal positive (+dp/dt/p) and negative (−dp/dt/p) pressure development were determined. At the end of the experiment blood and organs were harvested, weighed and rapidly processed and frozen for future analyses.

[4] = system: spontaneous hypertensive heart failure (SHHF) rats; assay: Left ventricular collagen by Picro Sirius Red staining in SHHF rats; format: in vivo, rat; details: 6 or 60 micrograms/day IPC or IV, 4 weeks, FIG. 12
Procedure: as §1, with “Forty to forty-two week old male lean spontaneous hypertensive heart failure (SHHF)” for “Normal Wistar”, “rats (originally obtained from Charles River, Boston, USA)” for “rats”, “used.” for “used for this Example.”
(§2) Animals were randomly assigned to treatment groups (n=9 per group). Total treatment time was 4 weeks for all animals. […]
Collagen volume fraction of each section was determined using a computer image analyzing system (Leica Q-Win). Interstitial collagen density of heart sections was evaluated in the left ventricle (LV) subepicardial myocardium regions. Ten fields from each region (magnification ×20) were randomly selected for analyses and the area stained was calculated as percentage of the total area within a field.
Perivascular collagen was expressed as ratio of the area of the collagen surrounding the vessel divided to the area of the coronary arteries media in order to correct for differences in vessel size (magnification ×20 or ×40). We calculated an average value for interstitial and perivascular fibrosis or each animal. […]

[5] = system: spontaneous hypertensive heart failure (SHHF) rats; assay: Transthoracic echocardiography in SHHF rats; format: in vivo, rat; details: treatment end versus treatment start, FIG. 4
Procedure: as §1, with “Forty to forty-two week old male lean spontaneous hypertensive heart failure (SHHF)” for “Normal Wistar”, “rats (originally obtained from Charles River, Boston, USA)” for “rats”, “used.” for “used for this Example.”
as §2
At the start and end of the treatment, transthoracic echocardiography was performed under isoflurane anesthesia in part of the rats (5-7 per group) using the SONOS 5500 echocardiographic system equipped with a 15-MHz linear-array transducer (Philips Medical Systems Corp., Netherlands). […] The 2-dimensional parasternal long- and short-axis view of the left ventricle and the parasternal short axis M-mode tracings were recorded.
Measurements and calculations performed are the following: percent LV fractional shortening (FS) was calculated as follows: […], where LVIDd and LVIDs are end-diastolic and end-systolic left ventricle internal dimensions, respectively. […]

corticosterone concentration in rat heart tissue [1]: higher concentration
Compound: C[C@]12C[C@H](O)[C@H]3[C@@H](CCC4=CC(=O)CC[C@@]43C)[C@@H]1CC[C@@H]2C(=O)CO [corticosterone]
mRNA expression of B-type natriuretic peptide (BNP) [2]: reduces | mRNA expression of Type I collagen [2]: reduces | mRNA expression of Type III collagen [2]: reduces | cardiac filling rate ([3]; 6 or 60 micrograms/day IPC or IV, 4 weeks): improved | left ventricular end diastolic pressure ([3]; 6 or 60 micrograms/day IPC or IV, 4 weeks, FIG. 8): improved; also recorded: positively affects | left ventricular contractility ([3]; 6 or 60 micrograms/day IPC or IV, 4 weeks, FIG. 10): improved; also recorded: positively affects | left ventricular relaxation ([3]; 6 or 60 micrograms/day IPC or IV, 4 weeks, FIG. 11): positively affects | heart rate ([3]; right carotid artery, 4 weeks treatment, FIG. 5): no differences between treatments; also recorded: not affecting | mean arterial pressure (MAP) / blood pressure ([3]; right carotid artery, 4 weeks treatment, FIG. 6): no differences between treatments; also recorded: not affecting | left ventricular epicardial collagen area [4]: improved; also recorded: positively affects | echocardiographic examinations (left ventricular dimensions or performance parameters) [5]: no differences between treatments
